Values joined by “and” are separate entries in the source; they are usually repeats but may differ in a detail not shown here. Equal entries are not always repeated. Where two headings read alike, the source gives them in different places. Marks after values point to notes of the source that are not given here.
Assays:
MtrR = target: T1, MtrR (Neisseria gonorrhoeae, UniProt P39897); test: Isothermal titration calorimetry, wild-type MtrR with bile salts; assay type: binding; details: ITC; for Stoichiometry N, WT MtrR: bile salt per MtrR
T1 construct: A codon optimized gene of MtrR was synthesized by GenScript and cloned into the; hexahistidine tag with TEV protease site (N, cleaved yes); made in house
Description: (§1) Purified MtrR was dialyzed extensively against buffer containing 20 mM Tris [pH 8.0], 200 mM NaCl, 10% glycerol, and 1 mM TCEP overnight at 4°C. The stock solutions and the necessary dilutions of the bile salts were prepared using this dialysis buffer. Titrations with 20 μM MtrR in the cell and 250 μM ligand in the syringe were performed using a VP-ITC microcalorimeter (Microcal Inc.). All measurements were conducted at 25°C with a stirring speed of 200 rpm. After subtraction of germane blank data, the titration data were analyzed using the program ORIGIN 5.0.
(§2) Protein purification for Isothermal Titration Calorimetry experiments and mutant […]
(§3) A codon optimized gene of MtrR was synthesized by GenScript and cloned into the pMCSG7 vector in- frame with the N-terminal Hexa- histidine tag and tobacco etch virus (TEV) protease cleavage site. This construct was used as the template for site- directed mutagenesis and to generate wild- type data in supplemental f igures 5-6 and Isothermal Titration Calorimetry data. This protein was overexpressed and purified as described in the “Materials and Methods” of the document, except the he xa -histidine tag MtrR was cleaved by TEV protease following NiNTA affinity chromatography. Cleaved MtrR was purified from tagged MtrR and cleaved hexa- histidine tag by Ni- NTA aff inity chromatography and then further purified by size exclusion chromatography (S200).

MtrR(R176E) = target: T2, MtrR(R176E) (Neisseria gonorrhoeae, UniProt P39897, R176E); test: Isothermal titration calorimetry, MtrR(R176E) with bile salts; assay type: binding; details: ITC
T2 construct: hexahistidine tag with TEV protease site (N, cleaved yes); made in house; host or cells: Rosetta Gami B(DE3) pLysS cells (Novagen)
Description: as §1, §2, §3
Site-directed mutagenesis
To introduce the mutations W 136L, R176A, and R176E, we performed DpnI mediated site-directed mutagenesis. Complementary oligonucleotides containing the desired mutations were obtained from IDT. PCR reactions containing two complementary primers, template DNA, Pfu DNA polymerase buffer, dNTP, and Pfu DNA polymerase were incubated at 95 °C for 30 seconds followed by 18 cycles of 95 °C for […], 55 °C for one minute, and 68 °C for 11 minutes. After cooling the reactions to 4 °C, 10 units of Dpn1 (NEB) was added to each 50 µl reaction and incubated at 37 °C for 3 hours.
The resulting plasmids were used to transform DH5α (Thermo Fisher) cells for plasmid prep. After checking the sequences to ensure the mutations had been incorporated, these plasmids were overexpressed in Rosetta Gami B(DE3) pLysS cells (Novagen)

MtrR(W136L) = target: T3, MtrR(W136L) (Neisseria gonorrhoeae, UniProt P39897, W136L); test: Isothermal titration calorimetry, MtrR(W136L) with bile salts; assay type: binding; details: ITC
T3 construct: hexahistidine tag with TEV protease site (N, cleaved yes); made in house; host or cells: Rosetta Gami B(DE3) pLysS cells (Novagen)
Description: as §1, §2
A codon optimized gene of MtrR was synthesized by GenScript and cloned into the pMCSG7 vector in- frame with the N-terminal Hexa- histidine tag and tobacco etch virus (TEV) protease cleavage site. This construct was used as the template for site- directed mutagenesis and to generate wild- type data in supplemental f igures 5-6 and Isothermal Titration Calorimetry data. This protein was overexpressed and purified as described in the “Materials and Methods” of the document, except the he xa -histidine tag MtrR was cleaved by TEV protease following NiNTA affinity chromatography. […]

WT MtrR = target: T4, WT MtrR (Neisseria gonorrhoeae, UniProt P39897); test: ITC ligand competition, WT MtrR presaturated with one bile salt and titrated with the second; assay type: binding; details: WT MtrR (20 μM) preincubated with 20 μM taurodeoxycholate overnight at 4°C
T4 construct: A codon optimized gene of MtrR was synthesized by GenScript and cloned into the; hexahistidine tag with TEV protease site (N, cleaved yes); made in house
Description: (A to D) Isothermal titration calorimetry thermograms and resulting binding isotherms for binding reactions between MtrR(R176E) and chenodeoxycholate (A) and taurodeoxycholate (B), as well as between MtrR(W136L) and chenodeoxycholate (C) and taurodeoxycholate (D). (E and F) Isothermal titration calorimetry thermograms and resulting binding isotherms for ligand competition assays. (E) WT MtrR (20 μM) was incubated with 20 μM taurodeoxycholate overnight at 4°C; chenodeoxycholate was titrated into MtrR-TDCA. (F) WT MtrR (20 μM) was incubated with 20 μM chenodeoxycholate overnight at 4°C; taurodeoxycholate was titrated into MtrR-CDCA.
This finding supports the idea that these ligands occupy different binding sites on MtrR and that the binding of taurodeoxycholate occludes, either directly or allosterically, the binding site of chenodeoxycholate. With our current data, we cannot determine the exact binding location of taurodeoxycholate. […]
Purified MtrR was dialyzed extensively against buffer containing 20 mM Tris [pH 8.0], 200 mM NaCl, 10% glycerol, and 1 mM TCEP overnight at 4°C. […] After subtraction of germane blank data, the titration data were analyzed using the program ORIGIN 5.0.

MtrR-mtrCDE promoter = target: T5, MtrR-mtrCDE promoter (Neisseria gonorrhoeae, UniProt P39897); assay type: biochemical; details: for Fold increase in Kd: versus no bile salt
T5 construct: nearly all 210 residues of each protomer observed, with the exception of residues 1 through 7; hexahistidine tag (thrombin-cleavable) (cleaved yes); made in house
Description: Thus, to rule out any effect of alkaline pH on MtrR-DNA interactions, we buffered the CAPS used in the FP assay to pH 8.0 before testing its effect on DNA binding.
Fluorescence polarization-based DNA binding experiments were performed with a Panvera Beacon 2000 fluorescence polarization system (Invitrogen) utilizing 5′-fluorescein-labeled DNA. Polarization (P) of such 5′-labeled DNA increases as a function of protein binding, and equilibrium dissociation constants are determined by curve fitting the values of millipolarization (P × 10^−3) units against the protein concentration. To determine the effects of various ligands on MtrR-DNA binding, 1 nM 5′-fluoresceinated oligodeoxynucleotide duplexes containing the mtrC operator site in 1 ml binding buffer (20 mM Tris HCl [pH 8.0], 100 mM NaCl, and 2.5% glycerol) were titrated against increasing concentrations of purified MtrR in the presence or absence of the indicated concentrations of bile salt, and the resulting changes in polarization were measured. All the samples were excited at 490 nm, and their polarized emissions were measured at 530 nm. All the data were plotted using Kaleidagraph (Synergy Software) and Prism (GraphPad Software), and the resulting plots were fitted to the following equation: P = {(Pbound − Pfree)[protein]/(KD + [protein])} + Pfree, where P is the polarization measured at a given protein concentration, Pfree is the initial polarization of the free ligand, Pbound is the maximum polarization of specifically bound ligand, KD is the equilibrium dissociation constant, and [protein] is the protein concentration. Nonlinear least-squares analysis was used to determine Pbound, and Kd. The reported binding constants are the average values from at least three independent experimental measurements.

MtrR-DNA complex = target: T6, MtrR-DNA complex (Neisseria gonorrhoeae, UniProt P39897); assay type: biochemical; details: EMSA, wild-type MtrR, mtrC promoter oligoduplex
T6 construct: nearly all 210 residues of each protomer observed, with the exception of residues 1 through 7; hexahistidine tag (thrombin-cleavable) (cleaved yes); made in house
Description: To test the hypothesis that these bile salts directly bind to MtrR and potentially derepress gene expression by interfering with the DNA binding activity of MtrR, MtrR-mtrC promoter interactions were tested in the presence and absence of different concentrations of several bile salts. […] It is important to note that this is a competition assay that, due to its experimental design, requires the use of 3 μM DNA and 4 to 10 μM MtrR dimer. Consequently, this means that ∼99.9% of all DNA is MtrR bound.
Complementary oligodeoxynucleotides containing the MtrR binding site from the mtrC promoter (top strand, 5′-[sequence]-3′; an unusual pseudo-direct repeat is underlined) were annealed by heating an equimolar mixture of the top and bottom strands at 95°C for 5 min, followed by slow cooling to room temperature. Binding reactions were carried out in 20-μl volumes of binding buffer (20 mM Tris [pH 8.0], 200 mM NaCl, 10% glycerol, and 1 mM TCEP) containing 1 μg oligoduplex, 1 μg poly(dI-dC), and 4 to 10 μg MtrR. After a 20-minute incubation at room temperature, the preformed complex was incubated with or without various concentrations of selected bile salts at room temperature for an additional 10 min. […] The gels were stained with ethidium bromide and visualized and analyzed with an Alpha Innotech gel documentation instrument. The intensities of free DNA were measured with ImageJII ([61], [62]).

[1] = target: T7, MtrR(R176A)-mtrCDE operator DNA (Neisseria gonorrhoeae, UniProt P39897, R176A); test: Electrophoretic mobility shift assay, induction of MtrR(R176A); assay type: biochemical; details: EMSA
T7 construct: hexahistidine tag with TEV protease site (N, cleaved yes); made in house; host or cells: Rosetta Gami B(DE3) pLysS cells (Novagen)
Text: (§4) We hypothesized that the bile salts chenodeoxycholate and taurodeoxycholate occupied the binding pocket in which the CAPS electron density was observed. In our crystal structure, residues R176′ and W136 appear to be potentially important for H bonding and π stacking, respectively, with the ligand (see Fig. S4). Therefore, we generated and purified the single-site mutant MtrR proteins, MtrR(R176A), MtrR(R176E), and MtrR(W136L), to determine the importance of these residues for ligand binding (see the supplemental material) ([40]). First, we determined the capabilities of these single mutants to bind DNA with our FP-based assay. All the mutants were capable of binding the mtrCDE target sequence, with dissociation constants in the nanomolar range and all within 5-fold of the wild-type protein (see Fig. S7A). […] At higher concentrations (5 to 10 mM), taurodeoxycholate induced all three mutants. […]
(§5) Complementary oligodeoxynucleotides containing the MtrR binding site from the mtrC promoter (top strand, 5′-[…]-3′; an unusual pseudo-direct repeat is underlined) were annealed by heating an equimolar mixture of the top and bottom strands at 95°C for 5 min, followed by slow cooling to room temperature. […] The gels were stained with ethidium bromide and visualized and analyzed with an Alpha Innotech gel documentation instrument. The intensities of free DNA were measured with ImageJII ([61], [62]).

[2] = target: T8, MtrR(R176E)-mtrCDE operator DNA (Neisseria gonorrhoeae, UniProt P39897, R176E); test: Electrophoretic mobility shift assay, induction of MtrR(R176E); assay type: biochemical; details: EMSA
T8 construct: hexahistidine tag with TEV protease site (N, cleaved yes); made in house; host or cells: Rosetta Gami B(DE3) pLysS cells (Novagen)
Text: as §4, §5

[3] = target: T9, MtrR(W136L)-mtrCDE operator DNA (Neisseria gonorrhoeae, UniProt P39897, W136L); test: Electrophoretic mobility shift assay, induction of MtrR(W136L); assay type: biochemical; details: EMSA
T9 construct: hexahistidine tag with TEV protease site (N, cleaved yes); made in house; host or cells: Rosetta Gami B(DE3) pLysS cells (Novagen)
Text: as §4, §5

[4] = tested on: mtrCp-lacZ in FA19 (wild type); test: β-Galactosidase assay of mtrCp-lacZ fusion, strain FA19; assay type: cell-based, Neisseria gonorrhoeae
Text: (§6) To determine if sublethal concentrations of bile salts could relieve MtrR-mediated repression of mtrC (and, by inference, the mtrCDE operon), a translational fusion of the promoter region of mtrC to lacZ was used. This fusion system was made in the wild-type (FA19) background ([41]) and cloned into mtrR deletion mutant strain JF1. Using the mtrCp-lacZ fusion, the β-galactosidase activity of the strains grown in the presence or absence of the bile salt chenodeoxycholate, taurodeoxycholate, or glycocholate was measured. The β-galactosidase levels were determined from strains grown overnight on GC agar supplemented with the bile salt at concentrations 4-fold below their specific MICs to ensure that the concentration of each bile salt was in the same biological range (the bile salt concentrations are listed in Table 2).
N. gonorrhoeae strains FA19 (wild type) and JF1 (FA19 ΔmtrR) containing a translational mtrCp-lacZ fusion with the proAB locus were used to assess the ability of bile salts to induce mtrC expression; the construction of these strains has been described previously ([41]). The MIC of bile salts for each strain used in the β-galactosidase assay was determined using a 2-fold agar dilution method ([32]). Gonococci were grown overnight on GC agar (Difco Laboratories) supplemented with a bile salt (glycocholate, chenodeoxycholate, or taurodeoxycholate) at concentrations that were 4-fold below the MIC. After overnight growth at 37°C under 3.8% (vol/vol) CO2, the bacteria were scraped from the agar plate, resuspended in 1 ml phosphate-buffered saline (pH 7.4), and lysed by freeze-thawing three times, after which the cell debris was pelleted by centrifugation. The lysate was then used to determine β-galactosidase levels as described previously ([63]). All experiments were performed in triplicate with at least three biological replicates conducted on different days.

[5] = tested on: mtrCp-lacZ in JF1 (FA19 ΔmtrR); assay type: cell-based, Neisseria gonorrhoeae
Text: as §6
N. gonorrhoeae strains FA19 (wild type) and JF1 (FA19 ΔmtrR) containing a translational mtrCp-lacZ fusion with the proAB locus were used to assess the ability of bile salts to induce mtrC expression; the construction of these strains has been described previously ([41]). The MIC of bile salts for each strain used in the β-galactosidase assay was determined using a 2-fold agar dilution method ([32]). […]

T1 sequence (P39897 whole entry): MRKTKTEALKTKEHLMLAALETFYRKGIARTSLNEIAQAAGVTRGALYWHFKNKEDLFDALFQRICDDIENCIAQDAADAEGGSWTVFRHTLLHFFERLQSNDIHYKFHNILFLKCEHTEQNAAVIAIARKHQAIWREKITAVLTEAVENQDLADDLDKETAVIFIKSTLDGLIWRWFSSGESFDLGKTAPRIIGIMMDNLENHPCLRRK
T5 sequence (P39897 whole entry): as above
T2 sequence (P39897 whole entry R176E): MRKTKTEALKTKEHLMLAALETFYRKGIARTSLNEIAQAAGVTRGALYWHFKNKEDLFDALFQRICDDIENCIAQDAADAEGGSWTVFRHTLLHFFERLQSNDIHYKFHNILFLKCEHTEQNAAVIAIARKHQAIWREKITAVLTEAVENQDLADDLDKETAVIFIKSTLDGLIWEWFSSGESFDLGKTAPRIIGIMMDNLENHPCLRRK
T7 sequence (P39897 whole entry R176A): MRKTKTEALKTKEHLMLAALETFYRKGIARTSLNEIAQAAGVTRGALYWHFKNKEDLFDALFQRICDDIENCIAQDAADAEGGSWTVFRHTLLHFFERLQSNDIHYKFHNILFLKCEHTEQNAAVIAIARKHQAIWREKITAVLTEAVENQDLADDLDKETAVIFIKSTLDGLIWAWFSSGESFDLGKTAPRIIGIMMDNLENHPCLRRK
T6 sequence (P39897 whole entry, one chain of several): as the sequence (P39897 whole entry) above
T4 sequence (P39897 whole entry): as above
T8 sequence (P39897 whole entry R176E): as the sequence (P39897 whole entry R176E) above
T3 sequence (P39897 whole entry W136L): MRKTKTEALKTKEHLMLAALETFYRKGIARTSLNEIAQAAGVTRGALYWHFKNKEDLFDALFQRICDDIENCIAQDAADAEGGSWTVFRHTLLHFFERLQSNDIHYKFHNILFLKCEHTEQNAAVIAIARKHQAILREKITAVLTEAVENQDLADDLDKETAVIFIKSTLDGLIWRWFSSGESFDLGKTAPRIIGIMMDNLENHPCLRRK
T9 sequence (P39897 whole entry W136L): as above

C[C@H](CCC(=O)O)[C@H]1CC[C@H]2[C@@H]3[C@H](O)C[C@@H]4C[C@H](O)CC[C@]4(C)[C@H]3CC[C@]12C [Chenodeoxycholate, chenodeoxycholate]
ΔH, WT MtrR (MtrR): -17.27 ± 3.09 kJ/mol | ΔS, WT MtrR (MtrR): 10.85 ± 3.13 cal/mol/deg | Kd (MtrR; 25°C, 20 μM MtrR in cell, 250 μM ligand in syringe, read-out: Kd of bile salt binding to WT MtrR): 4.4 µM and ~5 µM | Stoichiometry N, WT MtrR (MtrR): 0.444 ± 0.097 | Stoichiometry N, WT MtrR (MtrR; listed as CDCA): ~ 0.5 | Stoichiometry N, WT MtrR (MtrR; listed as chenodeoxycholate): one molecule of bile salt per MtrR dimer | Stoichiometry N, MtrR(R176E) (MtrR(R176E)): 0.521 ± 0.038 | ΔH, MtrR(R176E) (MtrR(R176E)): -54.304 ± 34.43 kJ/mol | ΔS, MtrR(R176E) (MtrR(R176E)): -23.00 ± 31.48 cal/mol/deg | Kd (MtrR(R176E); read-out: Kd of bile salt binding to MtrR(R176E)): 97 ± 64 µM | Kd of bile salt binding to MtrR(W136L) (MtrR(W136L)): No binding | Binding, ligand competition: chenodeoxycholate titrated into MtrR-TDCA (WT MtrR): minimal binding | Fold increase in Kd (MtrR-mtrCDE promoter; 1 mM bile salt): 8.3 | Fold increase in Kd (MtrR-mtrCDE promoter; 1 mM bile salt, listed as chenodeoxycholate): 8- to 28 | Fold increase in Kd (MtrR-mtrCDE promoter; 5 mM bile salt): No binding | Kd of MtrR-mtrCDE promoter binding in the presence of bile salt (MtrR-mtrCDE promoter; 5 mM bile salt, no bile salt 18 ± 3 nM): no DNA binding by MtrR was detected | Concentration that disrupts the preformed MtrR-DNA complex (MtrR-DNA complex): 2 to 3 mM | Concentration that induces (dissociates from mtrCDE operator DNA) MtrR(R176A) [1]: did not induce either MtrR(R176A) or MtrR(R176E) to the same degree as the wild-type protein | Concentration that induces (dissociates from mtrCDE operator DNA) MtrR(R176E) [2]: did not induce either MtrR(R176A) or MtrR(R176E) to the same degree as the wild-type protein | Concentration that induces (dissociates from mtrCDE operator DNA) MtrR(W136L) [3]: 5 to 10 mM | MtrR-dependent derepression of the mtrC promoter ([4]; FA19 compared with ΔmtrR strain JF1, sublethal bile salt): clearly evident | Fold increase of mtrCp-lacZ activity ([4]; strain FA19, grown on GC agar with bile salt 4-fold below MIC versus normal agar, mM concentration in parentheses in the cell): 5.09 (0.2) | Fold increase of mtrCp-lacZ activity [5]: 1.37 (0.2)^b

Reference: paper PMC6755732, “Structural, Biochemical, and In Vivo Characterization of MtrR-Mediated Resistance to Innate Antimicrobials by the Human Pathogen Neisseria gonorrhoeae” (Journal of Bacteriology, 2019)
